Laboratory results reported in PubChem BioAssay (NCI).
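Results reflect a 48-hour exposure of cells in 96-well plates to compound at five concentrations. GI50 = concentration required for 50% inhibition of growth. TGI denotes the concentration required for complete inhibition of growth.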

Key:
Assay in all cases: inhibition of tumour cell growth, NCI panel, 48 h
COLO 205 colon = tested on: COLO 205 colon
MCF7 breast = tested on: MCF7 breast
ACHN renal = tested on: ACHN renal
A549 NSCLC = tested on: A549 NSCLC
HCT-116 colon = tested on: HCT-116 colon
HL-60(TB) leukemia = tested on: HL-60(TB) leukemia
HCT-15 colon = tested on: HCT-15 colon
HCC-2998 colon = tested on: HCC-2998 colon

SMILES	GI50 (COLO 205 colon) [µM]	TGI (COLO 205 colon) [µM]	GI50 (MCF7 breast) [µM]	TGI (MCF7 breast) [µM]	GI50 (ACHN renal) [µM]	TGI (ACHN renal) [µM]	GI50 (A549 NSCLC) [µM]	TGI (A549 NSCLC) [µM]	GI50 (HCT-116 colon) [µM]	TGI (HCT-116 colon) [µM]	GI50 (HL-60(TB) leukemia) [µM]	TGI (HL-60(TB) leukemia) [µM]	GI50 (HCT-15 colon) [µM]	TGI (HCT-15 colon) [µM]	GI50 (HCC-2998 colon) [µM]	TGI (HCC-2998 colon) [µM]
CNC(=O)c1cccc(C#Cc2cncnc2Nc2ccc(OCc3cccc(F)c3)c(Cl)c2)c1	7.5	> 18.4	4.61	12.5	4.18	24.9	3.85	8.9	5.11	13.6	> 25	> 25	6.52	> 25	9.15	> 25
N#CC1=C(N)Oc2c(sc3c(Br)cccc23)C1c1ccc(Cl)cc1 (centres undefined)	0.774	2.72	0.295	5.07	0.531	2.46	1.16	3.52	0.429	1.79	0.357	1.88	0.403	2.25	1.57	6.29
Cc1c2c(nn1-c1ccc(S(=O)(=O)NC(=S)NC(=O)c3ccccc3)cc1)-c1ccccc1CC2	44.9	> 100	35.9	> 100	41	> 100	54.1	> 100			3.85	> 100	39.5	> 100	89.2	> 100
C=CCOC(=O)Nc1cccn([C@H](CC(C)C)C(=O)NCCC(C)C)c1=O	> 100	> 100	99.4	> 100	> 100	> 100	78.5	> 100	49.6	> 100	58.9	> 100	84.5	> 100		
CN(C)CCS(=O)(=O)Nc1cc(-c2ccc3ncc(C#N)c(Nc4ccc(F)c(Cl)c4)c3c2)cnc1Cl	0.188	0.439	0.106	1.39	0.546	> 100	1.14	4.79	0.214	0.69	0.0708	0.684			0.198	0.393
COc1cc(CCC(=O)NC[C@@H](O)c2ccccc2)ccc1O			> 100	> 100	> 100	> 100	> 100	> 100	> 100	> 100	> 100	> 100	> 100	> 100		
NCCSC(c1ccccc1)(c1ccccc1)c1ccccc1	0.435	1.69	0.354	1.78	1.48	11.2	0.742	6.03	0.373	1.49	0.879	3.03	0.409	1.75		
Cn1c(-c2c(N)n(Cc3ccc(F)cc3)c3nc(C#N)c(C#N)nc23)nc2ccccc21	1.52	6.26	2.19	> 50	0.829	2.43	5.48	> 50			3.76	> 50	2.05	13.6	1.35	3.05
COc1ccc2nc3cccc([N+](=O)[O-])c3c(NC(C)CN(C)C)c2c1 (centres undefined)	1.84	6.89	1.17	4.36	1.58	7.23	3.48	8.93	1.44	7.49	2.67		3.71			
O=C(c1ccccc1)c1nc2ccc(C(F)(F)F)cc2nc1N1CCN(c2ccccc2)CC1	18.9	51.9	48.2	> 100	21.6	53.7	> 100	> 100	24.7	53.7	30.9	> 100	20.5	50.1		
COC(=O)CNc1nc(N(C)O)nc(N(C)O)n1	3.99	> 100	3.07	> 100	1.35	> 100	3.44	> 100	1.98	> 100			0.551	> 100		
CN(C)CCNC(=O)c1ccc2oc3cc4ccccc4c(=O)n3c2c1	32.1	> 100	64.1	> 100	15.1	37.6	26.2	97	41.6	> 100	30.4	> 100	28.2	> 100		
CC(C)C(=O)c1c(C(F)(F)F)n([O-])c2ccccc2[n+]1=O	1.31	2.97	0.731	6.06	2.3		2.46	6.79	1.25	3.99			2.31	> 27.1	1.74	4.04
Nc1ncn([C@H]2C[C@H](OP(=O)(O)OC[C@H]3O[C@@H](n4cnc5c(=O)[nH]c(N)nc54)C[C@@H]3O)[C@@H](CO)O2)c(=O)n1	41.4	> 100	51.9	> 100	38.4	> 100	82.9	> 100	23	> 100	> 100	> 100			> 100	> 100
NC(N)=N/N=C/c1c(-c2cccnc2)nc2sc(Cl)cn12			8.27	> 100	10.3	21.9	18.7	40.1					14.9	28.1	14.4	27.5
C=CC(=O)Nc1cccc(Oc2nc(Nc3ccc(N4CCN(C)CC4)cc3OC)ncc2Cl)c1	2.28	5.07			0.421	3.14	1.46	3.33	1.64	3.06			2.59	10.7	1.72	3.35
COc1cc(CCNC(=O)OC(C)(C)C)c2c(c1OC)SSSSS2	2.19	4.35	1.77	5.06	2.56	4.93	3.36	10.2	5.51	> 100	2.92	13.4	2.45	5.78		
